According to ChEMBL document CHEMBL1201862, “PubChem BioAssay data set” (2004):
Activity calls are given as the source filed them. Cut-off read from the data, not from the text of the source, for most assays here: actives have a measured EC50 and inactives only a lower limit.

Experiments:
Hexokinase-1 = Hexokinase-1 (Homo sapiens, UniProt P19367); test: SAR analysis of small molecule inhibitors of hexokinase domain containing I (HKDC1) in the hexokinase 1 selectivity assay. [Related pubchem assays (depositor defined):AID493160, AID493190]; assay type: functional
Hexokinase HKDC1 = biological target: T1, Hexokinase HKDC1 (Homo sapiens, UniProt Q2TB90); test: SAR analysis of small molecule inhibitors of hexokinase domain containing I (HKDC1). [Related pubchem assays (depositor defined):AID493160, AID493190]; assay type: functional
T1 sequence (Q2TB90 whole entry): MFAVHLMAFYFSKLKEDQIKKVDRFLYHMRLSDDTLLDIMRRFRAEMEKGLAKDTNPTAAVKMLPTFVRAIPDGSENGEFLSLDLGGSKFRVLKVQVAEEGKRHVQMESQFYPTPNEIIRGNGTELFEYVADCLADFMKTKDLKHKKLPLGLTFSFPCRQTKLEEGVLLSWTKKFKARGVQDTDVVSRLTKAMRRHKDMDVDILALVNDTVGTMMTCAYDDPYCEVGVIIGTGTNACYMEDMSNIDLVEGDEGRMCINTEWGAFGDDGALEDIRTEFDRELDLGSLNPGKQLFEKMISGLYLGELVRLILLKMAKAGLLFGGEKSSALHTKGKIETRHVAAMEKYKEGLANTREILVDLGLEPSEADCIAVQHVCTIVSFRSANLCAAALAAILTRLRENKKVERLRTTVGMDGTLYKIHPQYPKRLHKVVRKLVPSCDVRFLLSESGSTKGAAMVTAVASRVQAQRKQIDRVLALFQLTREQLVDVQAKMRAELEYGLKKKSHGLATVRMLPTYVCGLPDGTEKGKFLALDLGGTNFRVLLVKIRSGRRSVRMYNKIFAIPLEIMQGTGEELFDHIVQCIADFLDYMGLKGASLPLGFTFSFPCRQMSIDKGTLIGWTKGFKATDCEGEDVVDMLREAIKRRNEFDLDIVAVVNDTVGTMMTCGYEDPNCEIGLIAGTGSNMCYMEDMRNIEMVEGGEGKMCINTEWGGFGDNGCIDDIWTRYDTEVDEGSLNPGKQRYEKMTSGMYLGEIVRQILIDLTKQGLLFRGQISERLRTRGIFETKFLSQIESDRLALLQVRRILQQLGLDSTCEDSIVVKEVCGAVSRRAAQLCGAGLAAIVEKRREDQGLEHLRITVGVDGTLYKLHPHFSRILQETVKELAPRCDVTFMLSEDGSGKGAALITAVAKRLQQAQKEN

[1] = fluconazole-exposed Candida albicans growth modulators – fluorescence, retest, confirmation (AID 2467); assay type: functional, cell-based
[2] = biological target: Serine/threonine-protein phosphatase (Candida dubliniensis (strain CD36 / CBS 7987 / NCPF 3949 / NRRLY-17841) (Yeast), UniProt B9W6M3); test: blockers of CaCl2-induced CDRE-lacZ signaling – S. cerevisiae, luminescence, secondary, dose response (AID 2388); assay type: functional, cell-based;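 note: yeast reporter cells carrying a calcineurin-responsive lacZ construct stimulated with calcium chloride; luminescent beta-galactosidase reporter signal in whole cells rather than isolated phosphatase activity; potency for inhibition where a drop in reporter signal means calcineurin blockade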
[3] = biological target: ATP-dependent molecular chaperone HSP82 (Candida albicans (strain WO-1) (Yeast), UniProt C4YTQ8); test: steroid-induced GRE reporter decrease in yeast – S. cerevisiae, luminescence, Hsp90 inhibitor project, dose response (AID 2400); assay type: functional, cell-based;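 note: beta-galactosidase luminescence from glucocorticoid response element reporter as proxy for Hsp90 function; inhibitor potency where signal loss means Hsp90 inhibition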
[4] = NIH-3T3 fibroblast cytotoxicity, dose response, cytotoxicity control, cell-based, fluorescence, Alamar Blue, secondary assay (AID 2327); assay type: functional;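 note: NIH-3T3 mouse fibroblasts cultured with fluconazole at 8 µg/mL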
[5] = biological target: T2, Calpain-2 catalytic subunit (Sus scrofa, UniProt P43367); test: m-calpain protease blockers, concentration series – biochemical, fluorogenic peptide substrate, dose response (AID 1420); assay type: functional
T2 sequence (P43367 whole entry): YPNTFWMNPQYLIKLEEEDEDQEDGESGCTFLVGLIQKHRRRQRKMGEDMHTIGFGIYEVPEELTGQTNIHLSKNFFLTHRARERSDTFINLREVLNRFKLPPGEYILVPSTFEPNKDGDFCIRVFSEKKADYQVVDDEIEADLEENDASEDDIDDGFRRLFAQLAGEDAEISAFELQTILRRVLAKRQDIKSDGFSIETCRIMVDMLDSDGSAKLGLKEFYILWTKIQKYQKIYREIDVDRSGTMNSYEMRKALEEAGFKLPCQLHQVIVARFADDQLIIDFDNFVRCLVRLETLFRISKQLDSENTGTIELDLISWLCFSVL

Streptococcus = test: GAS UMAA2166 growth inhibition – luminescence, BacTiterGlo, counter-screen for streptokinase expression inhibitor project, dose response (AID 1915); assay type: functional, organism-based;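 note: potency for reduction of bacterial viability or growth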
[6] = biological target: Heat shock protein HSP 90-alpha (Homo sapiens, UniProt P07900); assay type: functional, organism-based
[7] = tested on: Streptococcus sp. 'group A'; test: Streptococcus pyogenes SK(-)GAS viability under kanamycin – luminescence, BacTiterGlo, confirmation, counter-screen for streptokinase expression inhibitor project, dose response (AID 1900); assay type: functional, organism-based
HEK293 = test: cells; assay type: functional, cell-based; details: Homo sapiens
[8] = biological target: T3, Rac GTPase-activating protein 1 (Homo sapiens, UniProt Q9H0H5); test: blockers of MgcRacGAP-driven Rac1 GTP hydrolysis – biochemical, ADP Hunter fluorescence, primary and confirmatory, confirmation (AID 624330); assay type: functional
T3 sequence (Q9H0H5 whole entry): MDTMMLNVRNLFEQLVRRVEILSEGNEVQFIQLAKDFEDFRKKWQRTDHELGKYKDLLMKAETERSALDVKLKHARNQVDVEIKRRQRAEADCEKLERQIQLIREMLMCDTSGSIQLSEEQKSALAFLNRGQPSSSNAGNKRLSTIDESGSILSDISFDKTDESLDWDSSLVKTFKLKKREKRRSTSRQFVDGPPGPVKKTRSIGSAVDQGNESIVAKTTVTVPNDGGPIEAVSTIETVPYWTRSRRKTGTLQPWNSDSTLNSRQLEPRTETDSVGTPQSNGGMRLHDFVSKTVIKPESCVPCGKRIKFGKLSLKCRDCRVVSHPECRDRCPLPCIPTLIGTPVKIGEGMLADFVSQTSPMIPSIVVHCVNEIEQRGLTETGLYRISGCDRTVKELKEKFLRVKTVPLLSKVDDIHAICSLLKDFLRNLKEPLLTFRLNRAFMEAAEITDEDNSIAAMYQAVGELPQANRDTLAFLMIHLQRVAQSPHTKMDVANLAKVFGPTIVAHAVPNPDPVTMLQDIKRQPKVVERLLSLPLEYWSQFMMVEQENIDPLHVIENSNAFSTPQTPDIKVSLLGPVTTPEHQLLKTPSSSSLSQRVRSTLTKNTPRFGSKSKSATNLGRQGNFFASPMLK

[9] = biological target: T4, Acyl-homoserine lactone acylase PvdQ (Pseudomonas aeruginosa (strain LESB58), UniProt Q9I194); test: PvdQ acylase enzyme activity blockers – biochemical, fluorescence, plate reader and imaging, cherry-picks, dose response (AID 493231)
T4 sequence (Q9I194 whole entry): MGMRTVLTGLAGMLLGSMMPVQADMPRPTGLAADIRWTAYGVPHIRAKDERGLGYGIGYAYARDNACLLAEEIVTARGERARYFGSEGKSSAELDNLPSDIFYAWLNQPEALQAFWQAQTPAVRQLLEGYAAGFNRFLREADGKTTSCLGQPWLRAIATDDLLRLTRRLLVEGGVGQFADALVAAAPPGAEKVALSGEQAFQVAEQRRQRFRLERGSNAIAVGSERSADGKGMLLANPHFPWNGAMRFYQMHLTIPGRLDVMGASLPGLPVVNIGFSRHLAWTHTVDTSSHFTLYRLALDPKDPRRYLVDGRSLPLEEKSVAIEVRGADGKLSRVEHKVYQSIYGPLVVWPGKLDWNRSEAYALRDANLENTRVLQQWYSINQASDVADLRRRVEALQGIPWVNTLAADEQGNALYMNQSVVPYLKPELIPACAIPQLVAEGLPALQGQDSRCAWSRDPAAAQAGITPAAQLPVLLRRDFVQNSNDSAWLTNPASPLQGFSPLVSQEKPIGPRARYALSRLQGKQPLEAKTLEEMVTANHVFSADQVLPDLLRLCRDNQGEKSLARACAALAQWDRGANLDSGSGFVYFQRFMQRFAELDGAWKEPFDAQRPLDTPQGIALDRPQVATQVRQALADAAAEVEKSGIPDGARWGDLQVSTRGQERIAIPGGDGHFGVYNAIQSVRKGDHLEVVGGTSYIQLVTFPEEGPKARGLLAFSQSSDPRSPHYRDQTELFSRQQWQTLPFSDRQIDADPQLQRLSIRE

[10] = biological target: Nuclear receptor subfamily 0 group B member 1 (Homo sapiens, UniProt P51843); test: Luminescence-based cell-based high throughput dose response assay for inhibitors of the orphan nuclear receptor subfamily 0, group B, member 1 (DAX1; NR0B1). [Related pubchem assays (depositor defined):AID504766, AID504790]; assay type: functional
Genome polyprotein = Genome polyprotein (dengue virus type 2, UniProt P29990); test: flavivirus cap methylation enzyme inhibition – biochemical, confirmation dose response, primary screen (AID 588689); assay type: functional
Vero = test: viability of Vero cells under compound – cytotoxicity control for flavivirus capping enzyme inhibitors (AID 588742); assay type: functional; details: Chlorocebus sabaeus
[11] = Luminescence Cell-Based Dose Response to Identify Activators of Luciferase Translation or Activity in H4-C Neuroglioblastoma Cells. [Related pubchem assays: 1829 (Project Summary), 1814 (Primary HTS)]; assay type: functional
[12] = Luminescence Cell-Based Dose Response to Identify Activators of 5'UTR Stem-Loop Driven Prion Protein mRNA Translation in H4-C Neuroglioblastoma Cells. [Related pubchem assays: 1829 (Project Summary), 1814 (Primary HTS)]; assay type: functional
[13] = Luminescence Cell-Based Dose Response HTS to Identify Activators of Luciferase Translation or Activity in H4 […] Cells. [Related pubchem assays: 1829 (Project Summary), 1814 (Primary HTS)]; assay type: functional
H4 = test: Luminescence Cell-Based Dose Response HTS to Identify Activators of 5'UTR Stem-Loop Driven Prion Protein mRNA Translation in H4 Neuroglioblastoma Cells. [Related pubchem assays: 1829 (Project Summary), 1814 (Primary HTS)]; assay type: functional; details: Homo sapiens
[14] = Luminescence Cell-Based Dose Confirmation to Identify Activators of 5'UTR Stem-Loop Driven Alpha-Synuclein mRNA Translation in H4 Neuroglioblastoma Cells. [Related pubchem assays: 1829 (Project Summary), 1814 (Primary HTS)]; assay type: functional
[15] = Luminescence Cell-Based Dose Confirmation HTS to Identify Activators of 5'UTR Stem-Loop Driven Alpha-Synuclein mRNA Translation in H4 Neuroglioblastoma Cells. [Related pubchem assays: 1829 (Project Summary), 1814 (Primary HTS)]; assay type: functional

ATP-dependent molecular chaperone HSP82, sequence (C4YTQ8 whole entry): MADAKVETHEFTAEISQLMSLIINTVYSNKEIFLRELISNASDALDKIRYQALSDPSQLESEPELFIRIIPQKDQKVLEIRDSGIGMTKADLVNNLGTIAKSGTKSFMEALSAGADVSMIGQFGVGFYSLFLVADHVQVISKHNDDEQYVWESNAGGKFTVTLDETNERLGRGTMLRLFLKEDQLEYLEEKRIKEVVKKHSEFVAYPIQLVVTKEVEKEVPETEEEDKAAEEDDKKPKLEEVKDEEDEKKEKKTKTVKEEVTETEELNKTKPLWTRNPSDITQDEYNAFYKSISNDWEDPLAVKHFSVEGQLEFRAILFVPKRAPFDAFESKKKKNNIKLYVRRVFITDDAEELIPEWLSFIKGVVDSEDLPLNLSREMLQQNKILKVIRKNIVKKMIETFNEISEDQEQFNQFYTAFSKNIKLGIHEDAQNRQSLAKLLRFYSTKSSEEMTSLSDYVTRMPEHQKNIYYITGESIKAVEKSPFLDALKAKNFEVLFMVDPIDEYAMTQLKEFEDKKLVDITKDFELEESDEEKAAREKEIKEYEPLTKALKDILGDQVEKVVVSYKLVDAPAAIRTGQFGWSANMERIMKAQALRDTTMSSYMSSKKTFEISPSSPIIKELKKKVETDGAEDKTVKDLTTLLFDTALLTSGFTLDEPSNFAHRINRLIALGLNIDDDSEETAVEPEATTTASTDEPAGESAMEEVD
Genome polyprotein, sequence (P29990 2492-3391 limits assumed): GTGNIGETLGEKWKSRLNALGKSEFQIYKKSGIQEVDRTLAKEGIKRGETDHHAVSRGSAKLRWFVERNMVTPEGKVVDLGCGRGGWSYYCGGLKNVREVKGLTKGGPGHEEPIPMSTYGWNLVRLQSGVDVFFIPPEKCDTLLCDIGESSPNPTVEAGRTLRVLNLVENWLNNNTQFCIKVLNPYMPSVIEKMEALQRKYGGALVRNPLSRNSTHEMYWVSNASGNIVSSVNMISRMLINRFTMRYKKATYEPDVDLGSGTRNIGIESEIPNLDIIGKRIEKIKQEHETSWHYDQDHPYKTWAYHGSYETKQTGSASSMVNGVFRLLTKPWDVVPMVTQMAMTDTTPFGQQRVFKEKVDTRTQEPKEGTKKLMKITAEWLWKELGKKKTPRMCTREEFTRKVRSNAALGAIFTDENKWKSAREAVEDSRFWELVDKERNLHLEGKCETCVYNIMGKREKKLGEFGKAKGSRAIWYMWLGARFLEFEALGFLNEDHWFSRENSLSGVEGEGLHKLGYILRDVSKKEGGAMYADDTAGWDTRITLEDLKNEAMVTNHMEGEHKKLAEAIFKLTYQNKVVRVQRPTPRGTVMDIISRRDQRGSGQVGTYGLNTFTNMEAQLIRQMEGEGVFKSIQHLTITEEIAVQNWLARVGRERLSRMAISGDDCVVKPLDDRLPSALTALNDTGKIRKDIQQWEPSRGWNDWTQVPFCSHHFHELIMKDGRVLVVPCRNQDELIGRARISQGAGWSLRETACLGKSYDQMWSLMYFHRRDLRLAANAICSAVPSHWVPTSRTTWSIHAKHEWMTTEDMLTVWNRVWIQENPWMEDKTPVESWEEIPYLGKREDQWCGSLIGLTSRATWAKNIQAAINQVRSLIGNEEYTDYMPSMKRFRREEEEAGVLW
Hexokinase-1, sequence (P19367 whole entry, the tested form may be a part): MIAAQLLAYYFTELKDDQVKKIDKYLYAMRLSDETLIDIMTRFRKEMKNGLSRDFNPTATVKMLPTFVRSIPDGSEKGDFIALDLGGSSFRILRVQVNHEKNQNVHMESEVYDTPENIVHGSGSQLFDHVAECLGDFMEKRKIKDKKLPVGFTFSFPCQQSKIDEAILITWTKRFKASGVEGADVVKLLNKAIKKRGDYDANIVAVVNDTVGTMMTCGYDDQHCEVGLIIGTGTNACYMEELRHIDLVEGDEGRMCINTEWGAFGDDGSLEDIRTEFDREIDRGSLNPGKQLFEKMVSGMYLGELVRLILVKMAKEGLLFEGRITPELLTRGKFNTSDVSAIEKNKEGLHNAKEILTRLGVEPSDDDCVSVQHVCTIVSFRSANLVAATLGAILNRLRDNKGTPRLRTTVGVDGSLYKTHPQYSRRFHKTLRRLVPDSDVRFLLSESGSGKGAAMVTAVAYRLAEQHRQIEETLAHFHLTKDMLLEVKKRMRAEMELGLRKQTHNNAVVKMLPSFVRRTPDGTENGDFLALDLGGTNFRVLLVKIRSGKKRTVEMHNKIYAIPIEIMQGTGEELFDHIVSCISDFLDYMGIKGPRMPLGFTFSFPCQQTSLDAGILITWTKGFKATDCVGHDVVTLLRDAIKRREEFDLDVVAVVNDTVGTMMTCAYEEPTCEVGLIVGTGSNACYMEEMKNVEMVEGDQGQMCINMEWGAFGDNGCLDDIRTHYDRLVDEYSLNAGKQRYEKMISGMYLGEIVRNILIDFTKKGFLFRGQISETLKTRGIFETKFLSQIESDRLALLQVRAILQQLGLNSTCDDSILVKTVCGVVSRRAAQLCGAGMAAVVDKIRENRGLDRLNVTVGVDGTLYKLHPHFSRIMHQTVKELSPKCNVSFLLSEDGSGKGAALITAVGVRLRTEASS
Serine/threonine-protein phosphatase, sequence (B9W6M3 whole entry): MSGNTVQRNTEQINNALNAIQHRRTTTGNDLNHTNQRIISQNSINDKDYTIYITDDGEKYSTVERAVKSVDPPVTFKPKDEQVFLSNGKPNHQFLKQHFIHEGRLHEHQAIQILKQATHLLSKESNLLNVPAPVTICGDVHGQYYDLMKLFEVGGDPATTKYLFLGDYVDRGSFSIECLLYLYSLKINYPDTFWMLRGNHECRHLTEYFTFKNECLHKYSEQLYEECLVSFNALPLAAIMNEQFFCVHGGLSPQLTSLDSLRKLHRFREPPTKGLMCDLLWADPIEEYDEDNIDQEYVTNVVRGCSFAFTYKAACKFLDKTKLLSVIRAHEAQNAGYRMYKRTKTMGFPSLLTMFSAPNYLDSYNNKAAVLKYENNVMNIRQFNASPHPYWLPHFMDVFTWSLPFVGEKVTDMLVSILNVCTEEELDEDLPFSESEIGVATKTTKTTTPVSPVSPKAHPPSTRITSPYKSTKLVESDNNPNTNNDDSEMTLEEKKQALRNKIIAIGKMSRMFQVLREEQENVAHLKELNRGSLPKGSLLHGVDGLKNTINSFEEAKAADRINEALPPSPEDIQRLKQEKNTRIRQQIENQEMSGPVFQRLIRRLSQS
Nuclear receptor subfamily 0 group B member 1, sequence (P51843 whole entry): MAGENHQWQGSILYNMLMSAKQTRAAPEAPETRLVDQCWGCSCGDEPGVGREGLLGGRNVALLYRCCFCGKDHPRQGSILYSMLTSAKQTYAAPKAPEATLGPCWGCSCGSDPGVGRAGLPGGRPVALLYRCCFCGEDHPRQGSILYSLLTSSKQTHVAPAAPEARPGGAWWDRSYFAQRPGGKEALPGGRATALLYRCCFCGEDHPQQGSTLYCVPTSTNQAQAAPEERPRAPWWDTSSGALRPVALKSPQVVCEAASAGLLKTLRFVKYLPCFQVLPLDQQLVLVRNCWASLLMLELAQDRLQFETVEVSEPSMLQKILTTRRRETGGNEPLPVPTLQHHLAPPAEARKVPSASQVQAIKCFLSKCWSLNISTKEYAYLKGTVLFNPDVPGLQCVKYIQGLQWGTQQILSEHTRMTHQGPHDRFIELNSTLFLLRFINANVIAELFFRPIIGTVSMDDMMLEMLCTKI

With `Cc1cc2nnc(SCC(=O)Nc3ccccc3)n2c2ccccc12` as the molecule, how does the IC50 (Hexokinase-1) read?
The IC50 was > 80 µM (inactive).

And the IC50 (Hexokinase HKDC1)?
The IC50 was > 80 µM (inactive).

Which IC50 (Hexokinase-1) does the source give for `O=C(Nc1nnc(SCc2ccccc2)s1)c1ccc2[nH]cnc2c1` here?
Its IC50 is > 80 µM (inactive).

What about the IC50 (Hexokinase HKDC1) of the same molecule?
Its IC50 is > 80 µM (inactive).

With `Clc1ccc2c(c1)C(c1cccs1)=NNC(c1cccnc1)=N2` as the molecule, how does the EC50 [1] read?
The EC50 was 0.101 µM (active).

And the EC50 [2]?
The EC50 was > 180 µM (inactive).

And the EC50 [3]?
Its EC50 is > 150 µM (inactive).

And the EC50 [4]?
The EC50 was > 150 µM (inactive).

What does the source list for `O=[N+]([O-])c1cc(Cl)c(O)c2ncccc12`?
IC50 [5]: > 50 µM (not active); EC50 [1]: 0.055 µM (active); EC50 (Streptococcus): 5.77 µM (active); EC50 [2]: > 180 µM (inactive); EC50 [3]: 1.48 µM (active); AC50 [6]: 1.86 µM (active); EC50 [4]: 15.5 µM (active); EC50 [7]: 1.33 µM (active)

Which results are given for `CCOc1ccc(CNC2CCCc3ccccc32)cc1` (stereo not given)?
IC50 (HEK293): > 67.5 µM (inactive); IC50 [8]: 202 µM (active); AC50 [9]: 12.3 µM (active); IC50 [10]: > 67.5 µM (inactive)

With `CSc1ccc(-c2sc(Nc3cccc4ccccc34)n[n+]2-c2ccccc2)cc1` as the molecule, how does the IC50 (Genome polyprotein) read?
The IC50 was 44.5 µM (active).

And the CC50 (Vero)?
The CC50 was > 40 µM (active).

For `Cc1ccc(-c2nn(-c3ccccc3)cc2C=C2C(=O)CC(C)(C)CC2=O)cc1`, which EC50 [11] is on record?
The EC50 was 1.35 µM (active).

What about the IC50 (Genome polyprotein) of the same molecule?
The IC50 was 44.8 µM (active).

What about the CC50 (Vero) of the same molecule?
Its CC50 is 19.1 µM (active).

What about the EC50 [12] of the same molecule?
Its EC50 is > 12 µM (not active).

What about the EC50 [13] of the same molecule?
Its EC50 is 0.454 µM (active).

And the EC50 (H4)?
Its EC50 is > 120 µM (not active).

What about the EC50 [14] of the same molecule?
The EC50 was 0.555 µM (active).

What about the EC50 [15] of the same molecule?
Its EC50 is > 120 µM (not active).
